# In patent publication US20240228488A1 (TAKEDA PHARMACEUTICAL COMPANY LIMITED, priority 2021, published 2024):
# Biological target: human activated kallikrein enzyme (Homo sapiens, UniProt P03952)
# Assay: Plasma kallikrein inhibition, fluorogenic PFR-AMC substrate, 500 pM activated kallikrein format
# Format: biochemical
# Conditions: 500 pM activated kallikrein, 300 uM PFR-AMC, 30 min preincubation, 10 min reaction; read-out: Primary Dose Response Assay: Average EC50
# Outline: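 Enzyme (500 pM) was preincubated with inhibitor for 30 min at room temperature in 20 mM Tris pH 7.5, 1 mM EDTA, 150 mM NaCl, 0.1% PEG-400 and 0.1% Triton X-100. The reaction was started with 300 uM PFR-AMC, run 10 min, and fluorescence read at 460 nm (380 nm excitation). EC50 derived.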
# Sequence of human activated kallikrein enzyme (P03952 391-638 limits assumed): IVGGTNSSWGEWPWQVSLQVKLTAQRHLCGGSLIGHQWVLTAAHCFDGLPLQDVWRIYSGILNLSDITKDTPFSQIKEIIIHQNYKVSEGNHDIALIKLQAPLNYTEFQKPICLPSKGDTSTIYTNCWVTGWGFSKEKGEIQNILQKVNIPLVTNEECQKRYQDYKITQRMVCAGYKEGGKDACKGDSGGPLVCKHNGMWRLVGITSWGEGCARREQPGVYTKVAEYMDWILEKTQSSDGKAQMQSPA
# Sequence of human activated kallikrein enzyme (P03952 20-390 partner limits assumed): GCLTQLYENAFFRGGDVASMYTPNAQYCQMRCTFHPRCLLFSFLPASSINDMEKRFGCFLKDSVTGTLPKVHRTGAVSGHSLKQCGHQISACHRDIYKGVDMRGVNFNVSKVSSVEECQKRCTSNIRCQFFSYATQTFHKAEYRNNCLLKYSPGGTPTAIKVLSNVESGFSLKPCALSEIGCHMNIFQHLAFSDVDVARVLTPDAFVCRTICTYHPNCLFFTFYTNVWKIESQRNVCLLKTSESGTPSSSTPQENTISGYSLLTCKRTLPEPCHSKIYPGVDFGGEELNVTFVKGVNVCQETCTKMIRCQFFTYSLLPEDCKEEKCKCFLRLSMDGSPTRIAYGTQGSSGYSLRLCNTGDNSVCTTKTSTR
row,SMILES,EC50 [nM]
1,"Cc1ccnc([C@H]2C[C@@H]2C(=O)Nc2cccc(OCc3cn4cc(C5CC5)cc(N5CC(=O)N(C)C5=O)c4n3)c2)n1 [Example I-643, (1S,2S)—N-(3-((6-cyclopropyl-8-(3-methyl-2,4-dioxoimidazolidin-1-yl)imidazo[1,2-a]pyridin-2-yl)methoxy)phenyl)-2-(4-methylpyrimidin-2-yl)cyclopropane-1-carboxamide]",< 1
2,"CC(C)(C)OC(=O)N1CC(c2cc(C3CC3)cn3cc(CNc4ccnc(NC(=O)[C@H]5C[C@@H]5c5cccc(Cl)c5)c4)nc23)C1 [Example I-226, tert-butyl 3-(2-(((2-((1S,2S)-2-(3-chlorophenyl)cyclopropane-1-carboxamido)pyridin-4-yl)amino)methyl)-6-cyclopropylimidazo[1,2-a]pyridin-8-yl)azetidine-1-carboxylate]",10 to 100
3,"O=C(Nc1cc(NCc2cn3cc(C4CC4)cc(N4CC(F)C4)c3n2)ncn1)[C@H]1C[C@@H]1c1cccc(Cl)c1 [Example I-145, (1S,2S)-2-(3-chlorophenyl)-N-(6-(((6-cyclopropyl-8-(3-fluoroazetidin-1-yl)imidazo[1,2-a]pyridin-2-yl)methyl)amino)pyrimidin-4-yl)cyclopropane-1-carboxamide]",10 to 100
4,"Cc1ccnc([C@H]2C[C@@H]2C(=O)Nc2nncc(NCc3cn4cc(C5CC5)cc(N5CC(=O)N(C)C5=O)c4n3)n2)n1 [Example I-651, (1S,2S)—N-(5-(((6-cyclopropyl-8-(3-methyl-2,4-dioxoimidazolidin-1-yl)imidazo[1,2-a]pyridin-2-yl)methyl)amino)-1,2,4-triazin-3-yl)-2-(4-methylpyrimidin-2-yl)cyclopropane-1-carboxamide]",< 1
5,"CN(C)c1ccc2nc(CNc3cc(NC(=O)[C@H]4C[C@@H]4c4cccc(Cl)c4)ncn3)cn2c1 [Example I-205, (1S,2S)-2-(3-chlorophenyl)-N-(6-(((6-(dimethylamino)imidazo[1,2-a]pyridin-2-yl)methyl)amino)pyrimidin-4-yl)cyclopropane-1-carboxamide]",10 to 100
6,"Cc1ccnc([C@H]2C[C@@H]2C(=O)Nc2cc(N[C@H](C)c3cn4cc(C5CC5)cc(N5CC6(CN(C)C6)N(C)C5=O)c4n3)ncn2)n1 [Example I-245, (1S,2S)-N-(6-(((R)-1-(6-cyclopropyl-8-(2,5-dimethyl-6-oxo-2,5,7-triazaspiro[3.4]octan-7-yl)imidazo[1,2-a]pyridin-2-yl)ethyl)amino)pyrimidin-4-yl)-2-(4-methylpyrimidin-2-yl)cyclopropane-1-carboxamide]",< 1
7,"O=C1CN(c2cc(C3CC3)cn3cc(CNc4cc(NC(=O)[C@H]5C[C@@H]5c5cccc(Cl)c5)ncn4)nc23)CCN1 [Example I-149, (1S,2S)-2-(3-chlorophenyl)-N-(6-(((6-cyclopropyl-8-(3-oxopiperazin-1-yl)imidazo[1,2-a]pyridin-2-yl)methyl)amino)pyrimidin-4-yl)cyclopropane-1-carboxamide]",1 to 10
8,"COCc1cnc(NC(=O)[C@H]2C[C@@H]2c2nccc(C)n2)nc1OCc1cn2cc(C3CC3)cc(N3CC(=O)N(C)C3=O)c2n1 [Example 663, (1S,2S)—N-(4-((6-cyclopropyl-8-(3-methyl-2,4-dioxoimidazolidin-1-yl)imidazo[1,2-a]pyridin-2-yl)methoxy)-5-(methoxymethyl)pyrimidin-2-yl)-2-(4-methylpyrimidin-2-yl)cyclopropane-1-carboxamide]",< 1
9,"CCC(=O)O[C@H]1C[C@H](c2cn3cc(C4CC4)cc(N4CC(=O)N(C)C4=O)c3n2)N(c2cc(NC(=O)[C@H]3C[C@@H]3c3nccc(C)n3)ncn2)C1 [Example 425, (3S,5R)-5-(6-cyclopropyl-8-(3-methyl-2,4-dioxoimidazolidin-1-yl)imidazo[1,2-a]pyridin-2-yl)-1-(6-((1S,2S)-2-(4-methylpyrimidin-2-yl)cyclopropane-1-carboxamido)pyrimidin-4-yl)pyrrolidin-3-yl propionate]",10 to 100
10,"O=C(Nc1cc(NCc2cn3cc(C4CC4)cc(N4CCN5CC(F)(F)CC5C4)c3n2)ncn1)[C@H]1C[C@@H]1c1cccc(Cl)c1 (stereo partly drawn) [Example I-197, (1S,2S)-2-(3-chlorophenyl)-N-(6-(((6-cyclopropyl-8-(7,7-difluorohexahydropyrrolo[1,2-a]pyrazin-2(1H)-yl)imidazo[1,2-a]pyridin-2-yl)methyl)amino)pyrimidin-4-yl)cyclopropane-1-carboxamide]",10 to 100
11,"Cc1ccnc([C@H]2C[C@@H]2C(=O)Nc2cc(N[C@H](C)c3cn4cc(Cl)cc(N5CC(=O)N(C)C5=O)c4n3)ncn2)n1 [Example 421, (1S,2S)-N-(6-(((R)-1-(6-chloro-8-(3-methyl-2,4-dioxoimidazolidin-1-yl)imidazo[1,2-a]pyridin-2-yl)ethyl)amino)pyrimidin-4-yl)-2-(4-methylpyrimidin-2-yl)cyclopropane-1-carboxamide]",< 1
12,"Cc1ccnc([C@H]2C[C@@H]2C(=O)Nc2cc(C(O)Cc3cn4cc(C5CC5)cc(N5CC(=O)N(C)C5=O)c4n3)nc(C)n2)n1 (stereo partly drawn) [Example 674, (1S,2S)—N-(6-(2-(6-cyclopropyl-8-(3-methyl-2,4-dioxoimidazolidin-1-yl)imidazo[1,2-a]pyridin-2-yl)-1-hydroxyethyl)-2-methylpyrimidin-4-yl)-2-(4-methylpyrimidin-2-yl)cyclopropane-1-carboxamide]",10 to 100
13,"COCc1nc(NC(=O)[C@H]2C[C@@H]2c2nccc(C)n2)cc(N[C@H](C)c2cn3cc(C)cc(N4CC(=O)N(C)C4=O)c3n2)n1 [Example 438, (1S,2S)-N-(2-(methoxymethyl)-6-(((R)-1-(6-methyl-8-(3-methyl-2,4-dioxoimidazolidin-1-yl)imidazo[1,2-a]pyridin-2-yl)ethyl)amino)pyrimidin-4-yl)-2-(4-methylpyrimidin-2-yl)cyclopropane-1-carboxamide]",< 1
14,"Cc1ccnc([C@H]2C[C@@H]2C(=O)Nc2cc(OCc3cn4cc(C5CC5)cc(N5CC6CC6C5=O)c4n3)cnn2)n1 (stereo partly drawn) [Example 571, (1S,2S)-N-(5-((6-cyclopropyl-8-(2-oxo-3-azabicyclo[3.1.0]hexan-3-yl)imidazo[1,2-a]pyridin-2-yl)methoxy)pyridazin-3-yl)-2-(4-methylpyrimidin-2-yl)cyclopropane-1-carboxamide]",< 1
15,"Cc1ccnc([C@H]2C[C@@H]2C(=O)Nc2nccc3nn(Cc4cn5cc(C6CC6)cc(N6CC(=O)N(C)C6=O)c5n4)cc23)n1 (racemic) [Example 576, rac-(1S*,2S*)—N-(2-((6-cyclopropyl-8-(3-methyl-2,4-dioxoimidazolidin-1-yl)imidazo[1,2-a]pyridin-2-yl)methyl)-2H-pyrazolo[4,3-c]pyridin-4-yl)-2-(4-methylpyrimidin-2-yl)cyclopropane-1-carboxamide]",< 1

# Other lines, results leading:
row,EC50 [nM],SMILES
1,> 6000,"CN(C(=O)[C@H]1C[C@@H]1c1cccc(Cl)c1)c1cc(NCc2cn3cc(C4CC4)ccc3n2)ncn1 [Example 350, (1S,2S)-2-(3-chlorophenyl)-N-(6-(((6-cyclopropylimidazo[1,2-a]pyridin-2-yl)methyl)amino)pyrimidin-4-yl)-N-methylcyclopropane-1-carboxamide]"
2,100 to 1000,"O=C(Nc1cc(N2C[C@@H](O)[C@@H](O)[C@@H]2c2cn3cc(C4CC4)ccc3n2)ncn1)[C@H]1C[C@@H]1c1cccc(Cl)c1 [Example 483, (1S,2S)-2-(3-chlorophenyl)-N-(6-((2S,3S,4R)-2-(6-cyclopropylimidazo[1,2-a]pyridin-2-yl)-3,4-dihydroxypyrrolidin-1-yl)pyrimidin-4-yl)cyclopropane-1-carboxamide]"
3,100 to 1000,O=C(Nc1cc(NC(c2cn3cc(C4CC4)ccc3n2)C(F)(F)F)ccn1)[C@H]1C[C@@H]1c1cccc(Cl)c1 (stereo partly drawn) [Example 141]
4,1 to 10,"O=C(Nc1cc(NCc2cn3cc(C4CC4)ccc3n2)ncn1)[C@H]1[C@H](F)[C@@H]1c1cccc(Cl)c1 (racemic) [Example 511, rac-(1R*,2R*,3S*)-2-(3-chlorophenyl)-N-(6-(((6-cyclopropylimidazo[1,2-a]pyridin-2-yl)methyl)amino)pyrimidin-4-yl)-3-fluorocyclopropane-1-carboxamide]"
5,1 to 10,"COc1cc(NCc2cn3cc(C4CC4)ccc3n2)cc(NC(=O)[C@H]2C[C@@H]2c2cccc(Cl)c2)n1 [Example 340, (1S,2S)-2-(3-chlorophenyl)-N-(4-(((6-cyclopropylimidazo[1,2-a]pyridin-2-yl)methyl)amino)-6-methoxypyridin-2-yl)cyclopropane-1-carboxamide]"
6,10 to 100,"O=C(Nc1cc(NCc2cn3cc(C4CC4)ccc3n2)ncn1)[C@H]1C[C@@H]1c1cc(F)cc(Cl)c1 (racemic) [Example 46, rac-(1S*,2S*)-2-(3-chloro-5-fluorophenyl)-N-(6-(((6-cyclopropylimidazo[1,2-a]pyridin-2-yl)methyl)amino)pyrimidin-4-yl)cyclopropane-1-carboxamide]"
7,10 to 100,"N#Cc1ccc(Cl)cc1[C@H]1C[C@@H]1C(=O)Nc1cc(C(O)c2cn3cc(C4CC4)ccc3n2)ncn1 (relative stereo) [Example 352, rac-(1S*,2S*)-2-(5-chloro-2-cyanophenyl)-N-(6-((6-cyclopropylimidazo[1,2-a]pyridin-2-yl)(hydroxy)methyl)pyrimidin-4-yl)cyclopropane-1-carboxamide]"
8,1000 to 6000,"Cc1ccnc([C@H]2C[C@@H]2C(=O)Nc2cc(NCc3cn4cc(C5CC5)ccc4n3)ccc2S(C)(=O)=O)n1 (racemic) [Example 619, rac-(1S*,2S*)—N-(5-(((6-cyclopropylimidazo[1,2-a]pyridin-2-yl)methyl)amino)-2-(methylsulfonyl)phenyl)-2-(4-methylpyrimidin-2-yl)cyclopropane-1-carboxamide]"

# Same assay, conditions: comparative compounds, 500 pM activated kallikrein format; read-out: Primary Dose Response Assay: Average EC50
row,EC50 [nM],SMILES
1,1000 to 6000,O=C(NC1CC1Cc1cccc(Cl)c1)c1cnn(Cc2cn3cc(C4CC4)ccc3n2)c1 (stereo not drawn)
